For test [1], the system named is hepatocellular carcinoma cell line (HePG2). The test is described as follows: cells. To be noted: Homo sapiens, 48 h. The class given is cell-based.
In test [2] the test system is human lung carcinoma (A549). Briefly: cells. The class given is cell-based.
Test [3] deals with Escherichia coli. Briefly: Agar well diffusion, E. coli. The class given is cell-based. To be noted: Escherichia coli, read-out: Inhibition zones diameter.
In test [4] the test system is BRCA1. The test is described as follows: qRT-PCR, BRCA1 in PC3 cells. To be noted: versus negative samples. The class given is cell-based, human.
The test system of test [5] is pancreatic cancer cell line (PACA2). The test is described as follows: cells. The class given is cell-based. To be noted: Homo sapiens, PaCa-2, 48 h.
Test [6] relates to osteosarcoma cell line (HOS). Briefly: cells. The class given is cell-based. To be noted: 48 h; for IC50: MTT.
Test [7] relates to Candida albicans. The test is described as follows: Agar well diffusion, C. albicans. The class given is cell-based.

The structures appear in SMILES notation.

As to `Cc1ccc(S(=O)(=O)NC(=O)Nc2ccc(C(F)(F)F)cc2)cc1` [Compound 7, 4-Methyl-N-[(4-{trifluoromethyl}phenyl)carbamoyl]benzenesulfonamide], the mortality at 100 µg/mL was 100% in test [1] (100 μg/mL); 100% in test [2] (A549, 48 h, 100 μg/mL); 100% in test [5] (100 μg/mL); 100% in test [6] (Homo sapiens, 100 μg/mL). Besides, the half-maximal inhibitory concentration (IC50) in test [1] (MTT) came out at 97.4 ± 1.11 µM; in test [2] (MTT, 48 h), 86.5 ± 1.4 µM; in test [5] (MTT), 44.4 ± 0.57 µM; in test [6] (Homo sapiens) it was 102 µM; in test [6] it was 102.1 ± 0.95 µM. The zone of inhibition at 10000 µg/mL in test [3] stood at 30 ± 0.74 mm; in test [7] (Candida albicans, read-out: Inhibition zones diameter), 37 mm. Besides, the “BRCA1 gene expression level” value in test [4] was “decreased significantly”. For the same compound, the Inhibition zones diameter in test [7] (C. albicans, 200 μL of 10 mg/mL in DMSO in 15 mm holes, overnight 37 °C) amounted to 37 ± 1.20 mm.
